Columns and labels:
DhaA.H272F = DhaA.H272F (Rhodococcus rhodochrous, UniProt P0A3G2, H272F); assay: Binding of labeled chloroalkane substrates to DhaA.H272F
Source text: (§1) Carboxytetramethylrhodamine-C10H21NO2—Cl, carboxyfluorescein-C10H21NO2—Cl, and 5-carboxy-X-rhodamine-C10H21NO2—Cl bound to DhaA.H272F but not to DhaA.WT. Biotin-C10H21NO2—Cl bound to DhaA.H272F but not to DhaA.WT.

DhaA.WT = DhaA.WT (Rhodococcus rhodochrous, UniProt P0A3G2); assay: Binding of labeled chloroalkane substrates to wild type DhaA
Source text: as §1

streptavidin = streptavidin (Streptomyces avidinii, UniProt P22629); settings: surface plasmon resonance; cited from earlier work
[1] = molecular target: cyclic AMP dependent protein kinase catalytic subunit (Homo sapiens, UniProt P17612); settings: cited from earlier work
[2] = molecular target: catalytic subunit of protein kinase A (Homo sapiens, UniProt P17612); settings: cited from earlier work

Row | Compound | binding to DhaA.H272F (DhaA.H272F) | binding to DhaA.WT (DhaA.WT) | other results
1 | 5-carboxy-X-rhodamine-C10H21NO2—Cl | bound | not | 
2 | O=C(CCCC[C@@H]1SC[C@@H]2NC(=O)N[C@@H]21)NCCOCCOCCCCCCCl [Biotin-C10H21NO2—Cl] | bound | not | 
3 | O=C(O)CCCC[C@@H]1SC[C@@H]2NC(=O)N[C@@H]21 [biotin] |  |  | on-rate for biotin-streptavidin interaction (streptavidin): 5e+06 M⁻¹ s⁻¹
4 | O=C(NCCOCCOCCCCCCCl)c1ccc(-c2c3ccc(=O)cc-3oc3cc(O)ccc23)c(C(=O)O)c1 [carboxyfluorescein-C10H21NO2—Cl] | bound | not | 
5 | Carboxytetramethylrhodamine-C10H21NO2—Cl | bound | not | 
6 | LRRASLG |  |  | reduction of activity on addition of kinase catalytic subunit [1]: 30%
7 | RRFS: Photinus pyralis luciferase with valine 217 mutated to arginine generating site RRFS (Sala-Newby et al.) |  |  | decrease of activity when phosphorylated [2]: up to 80%
